These results are taken from patent US20240109881A1, “Heteroaryl Compounds as Ligand Directed Degraders of IRAK4” (Bristol-Myers Squibb Company, priority 2022, published 2024).

Some results are limits rather than exact numbers.

What is called EC50 is the concentration at which the effect is half-maximal.

In the test the target is T1, IRAK4 (Homo sapiens, UniProt Q9NWZ3).
T1 construct: endogenous in cells; host or cells: THP-1 cells
T1 sequence (Q9NWZ3 1-460): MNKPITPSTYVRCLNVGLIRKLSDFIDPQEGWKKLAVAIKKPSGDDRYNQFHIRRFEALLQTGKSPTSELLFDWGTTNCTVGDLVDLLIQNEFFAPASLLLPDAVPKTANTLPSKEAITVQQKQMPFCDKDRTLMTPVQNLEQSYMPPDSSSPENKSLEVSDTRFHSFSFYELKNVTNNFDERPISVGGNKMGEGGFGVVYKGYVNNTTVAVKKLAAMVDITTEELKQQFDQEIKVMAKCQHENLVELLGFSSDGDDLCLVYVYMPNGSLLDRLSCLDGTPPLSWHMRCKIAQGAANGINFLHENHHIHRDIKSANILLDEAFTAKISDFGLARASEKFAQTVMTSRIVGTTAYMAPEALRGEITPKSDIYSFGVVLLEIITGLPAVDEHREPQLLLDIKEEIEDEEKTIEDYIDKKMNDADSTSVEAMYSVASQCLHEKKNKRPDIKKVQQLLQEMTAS
The test is described as follows: ALE THP1 HTRF (Advanced Lipoxidation End Product THP1 Homogeneous Time Resolved Fluorescence). Type of test: cell-based. Particulars: THP1 cells. Summed up: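 HTRF read-out of IRAK4 protein: anti-IRAK4 d2 and cryptate antibody pair added to BCA-normalized lysates, overnight dark room-temperature incubation. Lysis ran 45 min with shaking at room temperature; buffer, cryptate-only and negative controls included.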
(In TR-FRET formats the signal depends on donor and acceptor labels being close together.)
Consider `C[C@H](C#N)Nc1cc(-n2ncc3cc(C#N)c(N)nc32)ncc1C(=O)N[C@H]1CC[C@H](CCN2CCN(c3ccc(C4CCC(=O)NC4=O)cc3)CC2)CC1` (stereo partly drawn) [P-135], for which the “ALE THP1 HTRF YMIN” value is recorded as 7.3% and it took 1 nM to reach a half-maximal effect (EC50).

As to `N#Cc1cnc2c(cnn2-c2cc(Nc3cnn(CC(F)(F)F)c3)c(C(=O)NC3CCC(CCN4CCN(c5ccc(C6CCC(=O)NC6=O)cc5)CC4)CC3)cn2)c1` (stereo not drawn) [P-70], the “ALE THP1 HTRF YMIN” value is recorded as 8.2% and the EC50 was determined as 3 nM.

For the compound `N#Cc1cnc2c(cnn2-c2cc(NC3CC3)c(-n3cc([C@H]4CC[C@H](CCN5CCN(c6ccc(C7CCC(=O)NC7=O)cc6)CC5)CC4)nn3)cn2)c1` (stereo partly drawn) [P-154], the “ALE THP1 HTRF YMIN” value was determined as 10.0% and the midpoint of the response, the EC50, lay at 22 nM.

Regarding `C[C@H]1CN(CC[C@H]2CC[C@H](NC(=O)c3cnc(-n4ncc5cc(C#N)cnc54)cc3NC3CC3)CC2)CCN1c1ccc(C2CCC(=O)NC2=O)cc1` (stereo partly drawn) [P-121], the “ALE THP1 HTRF YMIN” value is given as 11.0% and the EC50 stood at 13 nM.

As for `CC(C)(C[C@H]1CC[C@H](NC(=O)c2cnc(-n3ncc4cc(C#N)cnc43)cc2NC2CCCC2)CC1)N1CCN(c2ccc(C3CCC(=O)NC3=O)cc2)CC1` (stereo partly drawn) [P-81, 6-(5-cyano-1H-pyrazolo[3,4-b]pyridin-1-yl)-4-(cyclopentylamino)-N-((1r,4r)-4-(2-(4-(4-(2,6-dioxopiperidin-3-yl)phenyl)piperazin-1-yl)-2-methylpropyl)cyclohexyl)nicotinamide], the “ALE THP1 HTRF YMIN” value was found to be 10.7% and the half-maximal effective concentration (EC50) was determined as 73 nM.

As to `O=C1CCC(N2C(=O)c3ccc(N4CCC(C(=O)NC5CCC(n6cc(-c7cnc(Nc8ccc9ncsc9c8)cc7NC7CCCC7)nn6)CC5)CC4)cc3C2=O)C(=O)N1` (stereo not drawn) [P-5], the “ALE THP1 HTRF YMIN” value is 17.1% and the response was half-maximal at 54 nM (EC50).

Take `CC(C)Nc1cc(-n2ncc3cc(C#N)cnc32)ncc1C(=O)N[C@H]1CC[C@H](CN2CCN(c3ccc4c(c3)C(=O)N(C3CCC(=O)NC3=O)C4)CC2)CC1` (stereo partly drawn) [P-15]: the “ALE THP1 HTRF YMIN” value was determined as 31.8% and the EC50 is 26 nM.

As for `N#Cc1cnc2c(cnn2-c2cc(NC3CCCC3)c(-n3cc([C@H]4CC[C@H](CN5CCN(c6ccc7c(c6)C(=O)N(C6CCC(=O)NC6=O)C7)CC5)CC4)nn3)cn2)c1` (stereo partly drawn) [P-55, 1-[4-(Cyclopentylamino)-5-[4-[4-[[4-[2-(2,6-dioxo-3-piperidyl)-3-oxo-isoindolin-5-yl]piperazin-1-yl]methyl]cyclohexyl]triazol-1-yl]-2-pyridyl]pyrazolo[3,4-b]pyridine-5-carbonitrile], the “ALE THP1 HTRF YMIN” value was 10.3% and a half-maximal response (EC50) required 15 nM.

`N#Cc1cnc2c(cnn2-c2cc(NCCF)c(C(=O)NC3CCC(CCN4CCN(c5ccc(C6CCC(=O)NC6=O)cc5)CC4)CC3)cn2)c1` (stereo not drawn) [P-99]: the “ALE THP1 HTRF YMIN” value is reported as 10.7% and the half-maximal effective concentration (EC50) was 22 nM.

`N#Cc1cnc2c(cnn2-c2cc(NC3CCCC3)c(C(=O)N[C@H]3CC[C@H](CN4CCN(c5ccc6c(c5)C(=O)N(C5CCC(=O)NC5=O)C6=O)CC4)CC3)cn2)c1` (stereo partly drawn) [P-18]: the “ALE THP1 HTRF YMIN” value stood at 36.9% and a half-maximal effect (EC50) was put at 37 nM.

For `C[C@H](C#N)Nc1cc(-n2ncc3cc(C#N)cnc32)ncc1C(=O)N[C@H]1CC[C@H](CCN2C[C@H](C)N(c3ccc(C4CCC(=O)NC4=O)cc3)C[C@@H]2C)CC1` (stereo partly drawn) [P-158], the “ALE THP1 HTRF YMIN” value is listed as 16.0% and the 50% effective concentration (EC50) was 65 nM.

Regarding `N#Cc1cnc2c(cnn2-c2cc(NC3CCCC3)c(-c3cn([C@H]4CC[C@H](NC(=O)C5CCN(c6ccc7c(c6)C(=O)N(C6CCC(=O)NC6=O)C7)CC5)CC4)nn3)cn2)c1` (stereo partly drawn) [P-16, N-((1r,4r)-4-(4-(6-(5-cyano-1H-pyrazolo[3,4-b]pyridin-1-yl)-4-(cyclopentylamino)pyridin-3-yl)-1H-1,2,3-triazol-1-yl)cyclohexyl)-1-(2-(2,6-dioxopiperidin-3-yl)-3-oxoisoindolin-5-yl)piperidine-4-carboxamide], the “ALE THP1 HTRF YMIN” value worked out at 26.9% and the half-maximal effective concentration (EC50) was 16 nM.

Turning to `N#Cc1cnc2c(cnn2-c2cc(NC3CC3)c(C(=O)N[C@H]3CC[C@H](CCN4CCC5(CC4)CN(c4cccc(C6CCC(=O)NC6=O)c4)C5)CC3)cn2)c1` (stereo partly drawn) [P-90], the “ALE THP1 HTRF YMIN” value is recorded as 11.6% and the concentration giving a half-maximal response (EC50) is 28 nM.

On to `N#CCNc1cc(-n2ncc3cc(C#N)cnc32)ncc1C(=O)NC1CCC(CCN2CCN(c3ccc(C4CCC(=O)NC4=O)cc3)CC2)CC1` (stereo not drawn) [P-89], for which the “ALE THP1 HTRF YMIN” value is 10.3% and the half-maximal effective concentration (EC50) came to 23 nM.

Take `N#Cc1cnc2c(cnn2-c2cc(NC3CCCC3)c(C(=O)NC3CCC(CN4CCC(C(=O)Nc5ccc(C6CCC(=O)NC6=O)cc5)CC4)CC3)cn2)c1` (stereo not drawn) [P-31]: the “ALE THP1 HTRF YMIN” value is 18.2% and it took 60 nM to reach a half-maximal effect (EC50).

In the case of `CN(C(=O)C1CCN(c2ccc3c(c2)C(=O)N(C2CCC(=O)NC2=O)C3)CC1)C1CCC(n2cc(-c3cnc(-n4ncc5cc(C#N)cnc54)cc3NC3CCCC3)nn2)CC1` (stereo not drawn) [P-19], the “ALE THP1 HTRF YMIN” value turned out to be 38.0% and the EC50 was determined as 17 nM.

On to `N#Cc1cnc2c(cnn2-c2cc(NC3CCCC3)c(-n3cc(C4CCC(NC(=O)C5CCN(c6ccc7c(c6)C(=O)N(C6CCC(=O)NC6=O)C7)CC5)CC4)nn3)cn2)c1` (stereo not drawn) [P-33], for which the “ALE THP1 HTRF YMIN” value was 15.9% and the EC50 was found to be 8 nM.

`N#Cc1cnc2c(c1)ncn2-c1cc(NC2CCCC2)c(C(=O)N[C@H]2CC[C@H](CN3CCN(c4ccc5c(c4)C(=O)N(C4CCC(=O)NC4=O)C5=O)CC3)CC2)cn1` (stereo partly drawn) [P-53]: the “ALE THP1 HTRF YMIN” value is listed as 37.6% and the concentration for a half-maximal effect (EC50) is 1890 nM.

As to `N#Cc1cnc2c(cnn2-c2cc(NC3CC3)c(C(=O)N[C@H]3CC[C@H](C(=O)NC4CCN(c5ccc6c(c5)CN(C5CCC(=O)NC5=O)C6=O)CC4)CC3)cn2)c1` (stereo partly drawn) [P-129], the “ALE THP1 HTRF YMIN” value was found to be 24.2% and the concentration for a half-maximal effect (EC50) was found to be 47 nM.

For the compound `CS(=O)(=O)N1CCC(Nc2cc(-n3ncc4cc(C#N)c(N)nc43)ncc2C(=O)N[C@H]2CC[C@H](CCN3CCN(c4ccc(C5CCC(=O)NC5=O)cc4)CC3)CC2)CC1` (stereo partly drawn) [P-133], the “ALE THP1 HTRF YMIN” value is recorded as 6.9% and a half-maximal effect (EC50) was put at 10 nM.

Turning to `O=C1CCC(N2C(=O)c3ccc(N4CCN(C(=O)[C@H]5CC[C@H](n6cc(-c7cnc(Nc8ccc9ncsc9c8)cc7NC7CCCC7)nn6)CC5)CC4)cc3C2=O)C(=O)N1` (stereo partly drawn) [P-9], the “ALE THP1 HTRF YMIN” value is given as 20.0% and the concentration for a half-maximal effect (EC50) was determined as 25 nM.

Take `C[C@H](C#N)Nc1cc(-n2ncc3cc(C#N)c(N)nc32)ncc1C(=O)N[C@H]1CC[C@H](CCN2CCN(c3ccc(C4CCC(=O)NC4=O)cc3)[C@H](C)C2)CC1` (stereo partly drawn) [P-142]: the “ALE THP1 HTRF YMIN” value stood at 9.7% and a half-maximal response (EC50) required 46 nM.

Turning to `N#Cc1cnc2c(cnn2-c2cc(NCC3CC3)c(C(=O)N[C@H]3CC[C@H](CCN4CCN(c5ccc(C6CCC(=O)NC6=O)cc5)CC4)CC3)cn2)c1` (stereo partly drawn) [P-105], the “ALE THP1 HTRF YMIN” value is on record as 11.5% and a half-maximal effect (EC50) was put at 76 nM.

As for `CC(C)Nc1cc(-n2ncc3cc(C#N)cnc32)ncc1C(=O)NC1CCC(CCN2CCN(c3ccc(C4CCC(=O)NC4=O)cc3)CC2)CC1` (stereo not drawn) [P-50], the “ALE THP1 HTRF YMIN” value is 7.5% and a half-maximal effect (EC50) was put at 11 nM.

With `N#Cc1cnc2c(cnn2-c2cc(NC34CC(C3)C4)c(C(=O)NC3CCC(CCN4CCN(c5ccc(C6CCC(=O)NC6=O)cc5)CC4)CC3)cn2)c1` (stereo not drawn) [P-92], the “ALE THP1 HTRF YMIN” value was determined as 11.3% and the EC50 was 38 nM.

For the compound `CN(CC1CCC(NC(=O)c2cnc(-n3ncc4cc(C#N)cnc43)cc2NC2CCCC2)CC1)C1CCN(c2ccc(C3CCC(=O)NC3=O)cc2)CC1` (stereo not drawn) [P-60], the “ALE THP1 HTRF YMIN” value is listed as 11.3% and the EC50 turned out to be 945 nM.

As to `O=C1CCC(c2ccc(N3CCN(CC[C@H]4CC[C@H](NC(=O)c5cnc(-n6ncc7cc(Cl)cnc76)cc5NC5CC5)CC4)CC3)cc2)C(=O)N1` (stereo partly drawn) [P-114], the “ALE THP1 HTRF YMIN” value worked out at 46.1% and the EC50 was over 5000 nM.

With `N#Cc1cnc2c(cnn2-c2cc(NC3CC3)c(C(=O)NC3CCC(CCN4CCN(c5ccc(C6CCC(=O)NC6=O)cc5)CC4)CC3)cn2)c1` (stereo not drawn) [P-51], the “ALE THP1 HTRF YMIN” value came out at 7.9% and the EC50 was 9 nM.

For the compound `N#Cc1cnc2c(ccn2-c2cc(NC3CCCC3)c(C(=O)NC3CCC(CCN4CCN(c5ccc(C6CCC(=O)NC6=O)cc5)CC4)CC3)cn2)c1` (stereo not drawn) [P-48], the “ALE THP1 HTRF YMIN” value is on record as 12.0% and the concentration for a half-maximal effect (EC50) was found to be 99 nM.

In the case of `C[C@H](C#N)Nc1cc(-c2cnc3cc(C#N)cnn23)ncc1C(=O)N[C@H]1CC[C@H](CCN2CCC(c3ccc(C4CCC(=O)NC4=O)cc3)CC2)CC1` (stereo partly drawn) [P-148], the “ALE THP1 HTRF YMIN” value came to 11.0% and the midpoint of the response, the EC50, lay at 16 nM.

As to `N#Cc1cnc2c(cnn2-c2cc(NC3CC3)c(C(=O)NC3CCC(CCN4CCN(c5ccc(C6CCC(=O)NC6=O)nc5)CC4)CC3)cn2)c1` (stereo not drawn) [P-85], the “ALE THP1 HTRF YMIN” value is listed as 11.7% and a half-maximal effect (EC50) was put at 117 nM.

Consider `CN(CC1CCN(c2ccc(C3CCC(=O)NC3=O)cc2)CC1)[C@H]1CC[C@H](NC(=O)c2cnc(-n3ncc4cc(C#N)cnc43)cc2NC2CC2)CC1` (stereo partly drawn) [P-103, 6-(5-cyanopyrazolo[3,4-b]pyridin-1-yl)-4-(cyclopropylamino)-N-[4-[[1-[4-(2,6-dioxo-3-piperidyl)phenyl]-4-piperidyl]methyl-methyl-amino]cyclohexyl]pyridine-3-carboxamide], for which the “ALE THP1 HTRF YMIN” value was 16.2% and the 50% effective concentration (EC50) turned out to be 29 nM.

For `CN(c1ccc2c(c1)C(=O)N(C1CCC(=O)NC1=O)C2=O)C1CCN(C[C@H]2CC[C@H](NC(=O)c3cnc(-n4ncc5cc(C#N)cnc54)cc3NC3CCCC3)CC2)CC1` (stereo partly drawn) [P-38], the “ALE THP1 HTRF YMIN” value worked out at 24.3% and the EC50 is 119 nM.
